Data published in patent US20140005163A1 (NOVARTIS AG, priority 2010, published 2014).
pIC50: −log10 of the molar value.

Tests used:
PI3K delta = molecular target: T1, PI3K delta (Homo sapiens, UniProt O00329); assay: PI3K delta kinase assay (Kinase-Glo luminescence); format: biochemical
T1 construct: for the full-length p110-d subunit are generated and fused by overlapping PCR; p85(iSH2) fusion partner (see partner chain) (N); His tag (C); made in house; host or cells: baculovirus; Tn5 (Trichoplusia ni) or TiniPro insect cells
How it was run: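 Kinase-Glo luminescence read-out of ATP remaining after 60 min at RT. Enzyme: 10 nM BV1060 (p85 iSH2–p110δ fusion, His-tagged); substrate 10 μg/mL PI, ATP 1 μM final; Tris pH 7.5 buffer with MgCl2, NaCl, CHAPS, DTT. IC50 from 4-parameter logistic fit over 8 concentrations.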

PI3K beta = molecular target: T2, PI3K beta (Homo sapiens, UniProt P42338); assay: PI3K beta kinase assay (Kinase-Glo luminescence); format: biochemical
T2 construct: for the full-length p110-b subunit are generated and fused by overlapping PCR; p85(iSH2) fusion partner (see partner chain) (N); His tag (C); made in house; host or cells: baculovirus; Tn5 (Trichoplusia ni) or TiniPro insect cells
How it was run: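 Enzyme: BV949 p85(iSH2)-Gly linker-p110β FL-His, 25 nM. Substrate: PI 10 μg/mL. ATP: 1 μM, added to start. Buffer: Tris pH 7.5 10 mM, MgCl2 3 mM, NaCl 50 mM, CHAPS 0.05%, DTT 1 mM. RT, 60 min. Readout: Kinase-Glo. IC50 by 4-parameter fit.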

[1] = tested on: PKB Ser473 phosphorylation in Rat1-myr-HA-p110 beta cells; assay: Reverse protein array assay, PKB Ser473 phosphorylation in Rat1-myr-p110 beta cells; format: cell-based; conditions: 0.5 h, pAkt Ser473, 30 minutes incubation, read-out: p-PKB IC50
How it was run: (§1)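 Measured: PKB Ser473 phosphorylation by reverse protein array in Rat1 cells expressing myr-HA-p110 alpha, beta or delta, after 30 min compound treatment at 37 °C with 0.2% DMSO vehicle.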

[2] = tested on: PKB Ser473 phosphorylation in Rat1-myr-HA-p110 delta cells; assay: Reverse protein array assay, PKB Ser473 phosphorylation in Rat1-myr-p110 delta cells; format: cell-based; conditions: read-out: p-PKB IC50
How it was run: as §1

T1 sequence (O00329 with tags, fused parts or gaps limits assumed): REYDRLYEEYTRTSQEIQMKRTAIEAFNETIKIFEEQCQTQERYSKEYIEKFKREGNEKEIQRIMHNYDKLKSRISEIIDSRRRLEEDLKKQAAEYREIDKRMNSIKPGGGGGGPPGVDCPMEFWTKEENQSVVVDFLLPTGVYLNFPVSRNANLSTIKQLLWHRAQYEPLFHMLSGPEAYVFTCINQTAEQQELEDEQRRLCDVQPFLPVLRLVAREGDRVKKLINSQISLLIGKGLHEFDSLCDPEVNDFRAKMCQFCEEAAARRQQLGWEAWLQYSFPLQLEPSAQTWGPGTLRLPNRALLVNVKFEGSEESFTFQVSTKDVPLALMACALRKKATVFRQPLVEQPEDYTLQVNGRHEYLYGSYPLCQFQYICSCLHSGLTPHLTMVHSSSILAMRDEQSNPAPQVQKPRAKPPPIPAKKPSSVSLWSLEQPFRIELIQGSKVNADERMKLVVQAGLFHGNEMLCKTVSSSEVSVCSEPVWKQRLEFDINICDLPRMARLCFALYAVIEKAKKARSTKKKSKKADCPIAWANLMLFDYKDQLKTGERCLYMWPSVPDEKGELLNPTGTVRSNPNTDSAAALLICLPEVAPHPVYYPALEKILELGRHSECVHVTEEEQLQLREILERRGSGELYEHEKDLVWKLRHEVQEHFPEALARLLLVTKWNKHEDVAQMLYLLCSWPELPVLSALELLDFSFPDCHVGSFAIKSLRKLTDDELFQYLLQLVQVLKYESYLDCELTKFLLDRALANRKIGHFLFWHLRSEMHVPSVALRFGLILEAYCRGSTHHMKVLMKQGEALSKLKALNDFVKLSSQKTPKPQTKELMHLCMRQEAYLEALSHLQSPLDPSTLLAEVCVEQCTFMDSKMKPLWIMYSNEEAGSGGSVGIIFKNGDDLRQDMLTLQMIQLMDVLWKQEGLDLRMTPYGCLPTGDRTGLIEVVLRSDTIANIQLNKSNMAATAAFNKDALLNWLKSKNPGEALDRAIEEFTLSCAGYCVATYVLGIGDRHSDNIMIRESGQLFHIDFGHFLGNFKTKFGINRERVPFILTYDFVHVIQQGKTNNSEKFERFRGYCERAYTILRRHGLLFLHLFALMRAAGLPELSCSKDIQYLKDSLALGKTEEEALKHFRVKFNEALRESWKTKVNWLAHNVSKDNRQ
T2 sequence (P42338 with tags, fused parts or gaps limits assumed): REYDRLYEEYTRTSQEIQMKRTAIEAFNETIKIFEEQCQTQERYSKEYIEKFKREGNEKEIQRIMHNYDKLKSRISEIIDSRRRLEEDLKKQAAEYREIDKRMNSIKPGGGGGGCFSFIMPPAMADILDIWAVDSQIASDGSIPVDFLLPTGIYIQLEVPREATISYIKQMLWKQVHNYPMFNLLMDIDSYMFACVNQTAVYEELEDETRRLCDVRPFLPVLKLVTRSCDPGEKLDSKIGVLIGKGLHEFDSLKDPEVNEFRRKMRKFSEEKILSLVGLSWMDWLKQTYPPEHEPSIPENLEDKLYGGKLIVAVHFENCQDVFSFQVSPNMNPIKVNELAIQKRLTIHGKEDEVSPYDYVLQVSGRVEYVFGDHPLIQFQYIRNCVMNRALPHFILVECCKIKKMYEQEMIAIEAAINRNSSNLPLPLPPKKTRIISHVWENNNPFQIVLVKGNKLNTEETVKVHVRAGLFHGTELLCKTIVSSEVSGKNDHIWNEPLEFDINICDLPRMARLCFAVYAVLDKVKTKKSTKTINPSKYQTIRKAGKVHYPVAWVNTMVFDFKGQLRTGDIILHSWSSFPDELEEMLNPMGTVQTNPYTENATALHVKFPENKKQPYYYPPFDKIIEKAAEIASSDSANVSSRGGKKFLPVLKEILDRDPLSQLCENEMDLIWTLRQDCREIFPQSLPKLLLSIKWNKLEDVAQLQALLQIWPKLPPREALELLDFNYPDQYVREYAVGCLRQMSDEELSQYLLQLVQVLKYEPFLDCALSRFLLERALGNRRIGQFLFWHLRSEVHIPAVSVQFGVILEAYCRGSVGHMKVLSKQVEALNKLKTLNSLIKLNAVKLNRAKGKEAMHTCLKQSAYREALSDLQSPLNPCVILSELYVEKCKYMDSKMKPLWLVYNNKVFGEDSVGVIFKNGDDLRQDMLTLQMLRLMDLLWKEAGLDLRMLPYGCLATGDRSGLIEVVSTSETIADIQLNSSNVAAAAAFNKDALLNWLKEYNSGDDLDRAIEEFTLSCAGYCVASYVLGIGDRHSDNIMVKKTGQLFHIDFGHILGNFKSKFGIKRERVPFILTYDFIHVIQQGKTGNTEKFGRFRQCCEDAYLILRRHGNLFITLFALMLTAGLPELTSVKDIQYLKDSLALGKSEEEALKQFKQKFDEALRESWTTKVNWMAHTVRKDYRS

Row | SMILES | pIC50 (PI3K delta) | pIC50 (PI3K beta) | pIC50 [1] | pIC50 [2]
1 | CCOCc1cc(-c2ccc3ncc4c(c3c2)n(-c2cn(C)nc2Cl)c(=O)n4C)cnc1N [Example 166.4, 8-(6-Amino-5-ethoxymethyl-pyridin-3-yl)-1-(3-chloro-1-methyl-1H-pyrazol-4-yl)-3-methyl-1,3-dihydro-imidazo[4,5-c]quinolin-2-one] | > 8.52 | 8.00 | 7.96 | 7.96
2 | Cc1nn(C(C)C)cc1-n1c(=O)n(C)c2cnc3ccc(-c4cnc5c(c4)COC(=O)N5C)cc3c21 [Example 170, 1-(1-Isopropyl-3-methyl-1H-pyrazol-4-yl)-3-methyl-8-(1-methyl-2-oxo-1,4-dihydro-2H-pyrido[2,3-d][1,3]oxazin-6-yl)-1,3-dihydro-imidazo[4,5-c]quinolin-2-one] | 7.64 | 6.40 | 6.43 | 6.22
3 | Cc1nn(C)cc1-n1c(=O)n(C)c2cnc3ccc(-c4cncc(N(C)C5CCC5)c4)cc3c21 [Example 174, 8-[5-(Cyclobutyl-methyl-amino)-pyridin-3-yl]-1-(1,3-dimethyl-1H-pyrazol-4-yl)-3-methyl-1,3-dihydro-imidazo[4,5-c]quinolin-2-one] | 7.64 | 7.44 | 8.00 | 7.92
4 | Cc1cc(-n2c(=O)n(C)c3cnc4ccc(-c5cnc(C)c(O)c5)cc4c32)n(C)n1 [Example 185.2, 1-(2,5-Dimethyl-2H-pyrazol-3-yl)-8-(5-hydroxy-6-methyl-pyridin-3-yl)-3-methyl-1,3-dihydro-imidazo[4,5-c]quinolin-2-one] | 8.22 | 7.25 | 7.06 | 6.80
5 | [2H]C([2H])([2H])OCc1ncc(-c2ccc3ncc4c(c3c2)n(-c2cn(C)nc2C)c(=O)n4C)cc1OCC [Example 198, 1-(1,3-Dimethyl-1H-pyrazol-4-yl)-8-(5-ethoxy-6-trideuteromethoxymethyl-pyridin-3-yl)-3-methyl-1,3-dihydro-imidazo[4,5-c]quinolin-2-one] | 8.15 | 7.49 | 7.43 | 7.05
6 | CCn1cc(-n2c(=O)n(C)c3cnc4ccc(-c5cncc(C(C)(C)C#N)c5)cc4c32)c(C)n1 [Example 220.2, 2-{5-[1-(1-Ethyl-3-methyl-1H-pyrazol-4-yl)-3-methyl-2-oxo-2,3-dihydro-1H-imidazo[4,5-c]quinolin-8-yl]-pyridin-3-yl}-2-methyl-propionitrile] | 8.15 | 7.39 | 7.49 | 7.35
7 | CCNC(=O)c1cc(-c2ccc3ncc4c(c3c2)n(-c2cn(C(C)C)nc2C)c(=O)n4C)cnc1N [Example 227, 2-Amino-N-ethyl-5-[1-(1-isopropyl-3-methyl-1H-pyrazol-4-yl)-3-methyl-2-oxo-2,3-dihydro-1H-imidazo[4,5-c]quinolin-8-yl]-nicotinamide] | 7.59 | 6.54 | 6.66 | 6.62
8 | COc1ncc(-c2ccc3ncc4c(c3c2)n(-c2cc(C)nn2C)c(=O)n4C)c(OC)n1 [Example 234.4, 8-(2,4-Dimethoxy-pyrimidin-5-yl)-1-(2,5-dimethyl-2H-pyrazol-3-yl)-3-methyl-1,3-dihydro-imidazo[4,5-c]quinolin-2-one] | 7.72 | 6.44 | 7.23 | 6.92
9 | CNc1ccc(-c2ccc3ncc4c(c3c2)n(-c2cn(C(C)C)nc2C)c(=S)n4C)cn1 [Example 241, 1-(1-isopropyl-3-methyl-1H-pyrazol-4-yl)-3-methyl-8-(6-(methylamino)pyridin-3-yl)-1H-imidazo[4,5-c]quinoline-2(3H)-thione] | 6.83 | 6.74 | > 8.30 | 8.05
10 | CCn1cc(-n2c(=O)n(C)c3cnc4ccc(-c5ccc(OC)c(OC)c5)nc4c32)c(C)n1 [Example 254, 8-(3,4-Dimethoxy-phenyl)-1-(1-ethyl-3-methyl-1H-pyrazol-4-yl)-3-methyl-1,3-dihydro-1,3,5,9-tetraaza-cyclopenta[a]naphthalen-2-one] | 7.59 | 7.21 | 7.59 | 6.94
